Holding throughout (experiment): ≥ marks a high value that may be exact or a test limit, other limits are often not marked, values filed in µg/mL are converted to µM
Assay [1] has as its system Pseudomonas aeruginosa ATCC 27853.
The subject of assay [2] is Staphylococcus aureus ATCC 29213.
Assay [3] has as its system Escherichia coli ATCC 25922.
The test system of assay [4] is Staphylococcus aureus.
For assay [5], the system named is Escherichia coli.

The record followed here is DBAASP.

By MIC is commonly meant the lowest concentration found to suppress growth. A low value points to inhibition by little substance.

In brackets after ≈: the same amount, converted by molar mass. Where only a bound is given, the exact number is not on record here.

As for `CC[C@H](C)[C@H](NC(=O)CN)C(=O)NCC(=O)N[C@@H](CCCCN)C(=O)N[C@@H](Cc1ccccc1)C(=O)N[C@@H](CC(C)C)C(=O)N[C@@H](Cc1cnc[nH]1)C(=O)N[C@@H](CO)C(=O)N[C@@H](C)C(=O)N[C@@H](CCCCN)C(=O)N[C@@H](CCCCN)C(=O)N1CCC[C@H]1C(=O)NCC(=O)N[C@@H](CCCCN)C(=O)N[C@@H](C)C(=O)N[C@@H](Cc1ccccc1)C(=O)N[C@H](C(=O)NCC(=O)N[C@@H](CCC(=O)O)C(=O)N[C@H](C(=O)N[C@@H](CCSC)C(=O)N[C@@H](CC(N)=O)C(=O)N[C@@H](CO)C(N)=O)[C@@H](C)CC)C(C)C` [GIGKFLHSAKKPGKAFVGEIMNS], the MIC in assay [1] is 53 µM (≈ 128 µg/mL); in assay [2], 106 µM (≈ 256 µg/mL); in assay [3], 26.5 µM (≈ 64 µg/mL).
As to `CC(=O)N[C@@H](CCCCN)C(=O)N[C@@H](CC(C)C)C(=O)N[C@@H](CC(C)C)C(=O)N[C@@H](CCCCN)C(=O)N[C@@H](CC(C)C)C(=O)N[C@@H](CC(C)C)C(=O)N[C@@H](CCCCN)C(=O)N[C@@H](CCCCN)C(=O)N[C@@H](CC(C)C)C(=O)N1CCC[C@H]1C(=O)N[C@@H](CCCCN)C(=O)N[C@@H](CC(C)C)C(=O)N[C@@H](CC(C)C)C(=O)N[C@@H](CCCCN)C(N)=O` [KLLKLLKKLPKLLK], the MIC in assay [2] and in assay [3] was 40 µM (≈ 68.7 µg/mL) each time.
As for `CC(C)C[C@H](NC(=O)[C@H](CCCCN)NC(=O)[C@H](CC(C)C)NC(=O)[C@H](CC(C)C)NC(=O)[C@H](CCCCN)NC(=O)[C@H](CCCCN)NC(=O)[C@H](CC(C)C)NC(=O)[C@H](CC(C)C)NC(=O)[C@H](CCCCN)NC(=O)[C@H](C)NC(=O)[C@H](CC(C)C)NC(=O)[C@H](CCCCN)NC(=O)[C@H](CCCCN)NC(=O)[C@@H](N)CC(C)C)C(=O)N[C@@H](C)C(=O)NCC(=O)O` [LKKLAKLLKKLLKLAG], the MIC in assay [2] and in assay [3] was 10 µM (≈ 17.8 µg/mL) in each case.
Take `CC(C)C[C@H](NC(=O)[C@H](CCCCN)NC(=O)[C@H](CC(C)C)NC(=O)[C@H](CC(C)C)NC(=O)[C@H](CCCCN)NC(=O)[C@H](CCCCN)NC(=O)[C@@H](N)CC(C)C)C(=O)NCC(=O)N[C@@H](CCCCN)C(=O)N[C@@H](CCCCN)C(=O)N[C@@H](CC(C)C)C(=O)N[C@@H](CC(C)C)C(=O)N[C@@H](CCCCN)C(=O)N[C@@H](CC(C)C)C(=O)N[C@@H](C)C(=O)NCC(=O)O` [LKKLLKLGKKLLKLAG]: the MIC in assay [2] amounted to 5 µM (≈ 8.82 µg/mL); in assay [3], 2.5 µM (≈ 4.41 µg/mL).
Taken in the same sequence, the figures for `CC(=O)N[C@@H](CCCCN)C(=O)N1CCC[C@H]1C(=O)N[C@@H](CC(C)C)C(=O)N[C@@H](CCCCN)C(=O)N[C@@H](CC(C)C)C(=O)N[C@@H](CC(C)C)C(=O)N[C@@H](CCCCN)C(=O)N[C@@H](CCCCN)C(=O)N[C@@H](CC(C)C)C(=O)N[C@@H](CC(C)C)C(=O)N[C@@H](CCCCN)C(=O)N[C@@H](CC(C)C)C(=O)N[C@@H](CC(C)C)C(=O)N[C@@H](CCCCN)C(N)=O` [KPLKLLKKLLKLLK] were 7.07 µM (≈ 12.1 µg/mL) and 7.07 µM (≈ 12.1 µg/mL).
For `CC(=O)N[C@@H](CC(C)C)C(=O)N[C@@H](CCCCN)C(=O)N[C@@H](CCCCN)C(=O)N[C@@H](CC(C)C)C(=O)N[C@@H](CC(C)C)C(=O)N[C@@H](CCCCN)C(=O)N[C@@H](CC(C)C)C(=O)N[C@@H](CC(C)C)C(=O)N[C@@H](CCCCN)C(=O)N[C@@H](CCCCN)C(=O)N[C@@H](CC(C)C)C(=O)N[C@@H](CC(C)C)C(=O)N[C@@H](CCCCN)C(=O)N[C@@H](CC(C)C)C(N)=O` [LKKLLKLLKKLLKL], the minimal inhibitory concentration (MIC) in assay [2] and in assay [3] was 14.1 µM (≈ 24.5 µg/mL) throughout.
Consider `CSCC[C@H](NC(=O)CNC(=O)[C@H](C)NC(=O)[C@H](CCCCN)NC(=O)[C@H](C)NC(=O)[C@H](Cc1ccccc1)NC(=O)[C@H](CCCCN)NC(=O)[C@H](CCCCN)NC(=O)[C@H](CC(C)C)NC(=O)[C@@H](NC(=O)[C@H](CC(=O)O)NC(=O)[C@H](CC(C)C)NC(=O)[C@H](Cc1ccccc1)NC(=O)[C@H](CC(C)C)NC(=O)CN)[C@@H](C)O)C(=O)N[C@@H](CCC(=O)O)C(=O)N[C@@H](C)C(=O)N[C@H](C(=O)N[C@H](C(=O)N[C@@H](CC(N)=O)C(=O)N1CCC[C@H]1C(=O)N[C@@H](CCCCN)C(=O)O)[C@@H](C)O)C(C)C` [GLFLDTLKKFAKAGMEAVTNPK], for which the MIC in assay [4] and in assay [5] was 80 µM (≈ 190 µg/mL) throughout.
As to `CC(C)C[C@H](NC(=O)[C@H](C)NC(=O)[C@H](CCCCN)NC(=O)[C@H](CC(C)C)NC(=O)[C@H](CC(C)C)NC(=O)[C@H](CCCCN)NC(=O)[C@H](CCCCN)NC(=O)[C@@H](N)CC(C)C)C(=O)N[C@@H](CCCCN)C(=O)N[C@@H](CCCCN)C(=O)N[C@@H](CC(C)C)C(=O)N[C@@H](CC(C)C)C(=O)N[C@@H](CCCCN)C(=O)N[C@@H](CC(C)C)C(=O)N[C@@H](C)C(=O)NCC(=O)O` [LKKLLKALKKLLKLAG], the MIC in assay [2] and in assay [3] was 10 µM (≈ 17.8 µg/mL) throughout.
On to `CC(C)C[C@H](NC(=O)[C@H](Cc1ccccc1)NC(=O)[C@H](C)NC(=O)[C@H](Cc1c[nH]c2ccccc12)NC(=O)[C@H](Cc1c[nH]c2ccccc12)NC(=O)[C@H](Cc1c[nH]c2ccccc12)NC(=O)[C@@H]1CCCN1C(=O)[C@H](Cc1ccccc1)NC(=O)[C@H](CCCN=C(N)N)NC(=O)[C@H](CCCN=C(N)N)NC(=O)[C@@H](N)C(C)C)C(=O)N[C@@H](CCCN=C(N)N)C(=O)N[C@@H](CCCN=C(N)N)C(N)=O` [VRRFPWWWAFLRR], for which the minimal inhibitory concentration (MIC) in assay [4] is 2.66 µM (≈ 5 µg/mL); in assay [5] it was 10.7 µM (≈ 20 µg/mL); in assay [3] it was 2.83 µM (≈ 5.3 µg/mL).
Consider `CC(=O)N[C@@H](CC(C)C)C(=O)N[C@@H](CCCCN)C(=O)N[C@@H](CCCCN)C(=O)N1CCC[C@H]1C(=O)N[C@@H](CC(C)C)C(=O)N[C@@H](CCCCN)C(=O)N[C@@H](CC(C)C)C(=O)NCC(=O)N[C@@H](CCCCN)C(=O)N[C@@H](CCCCN)C(=O)N[C@@H](CC(C)C)C(=O)N[C@@H](CC(C)C)C(=O)N[C@@H](CCCCN)C(=O)N[C@@H](CC(C)C)C(N)=O` [LKKPLKLGKKLLKL], for which the values for the MIC in assay [2] and in assay [3] were 40 µM (≈ 66.4 µg/mL) and 7.07 µM (≈ 11.7 µg/mL), respectively.
Taken in the same sequence, the figures for `CC(=O)N[C@@H](CCCCN)C(=O)N[C@@H](CC(C)C)C(=O)N1CCC[C@H]1C(=O)N[C@@H](CCCCN)C(=O)N[C@@H](CC(C)C)C(=O)N[C@@H](CC(C)C)C(=O)N[C@@H](CCCCN)C(=O)N[C@@H](CCCCN)C(=O)N[C@@H](CC(C)C)C(=O)N[C@@H](CC(C)C)C(=O)N[C@@H](CCCCN)C(=O)N[C@@H](CC(C)C)C(=O)N[C@@H](CC(C)C)C(=O)N[C@@H](CCCCN)C(N)=O` [KLPKLLKKLLKLLK] were 10 µM (≈ 17.2 µg/mL) and 10 µM (≈ 17.2 µg/mL).
Taken in the same sequence, the figures for `CC[C@H](C)[C@H](NC(=O)[C@H](CCCN=C(N)N)NC(=O)[C@H](CCC(N)=O)NC(=O)[C@@H](NC(=O)[C@@H](NC(=O)[C@H](CCCN=C(N)N)NC(=O)[C@H](CCCCN)NC(=O)[C@@H](N)Cc1ccccc1)[C@@H](C)CC)C(C)C)C(=O)N[C@@H](CCCCN)C(=O)N[C@@H](CC(=O)O)C(=O)N[C@@H](CO)C(=O)N[C@@H](CC(C)C)C(=O)N[C@@H](CCCN=C(N)N)C(=O)O` [FKRIVQRIKDSLR] were over 40 µM and 10 µM (≈ 16.6 µg/mL).
In the case of `CC(C)C[C@H](NC(=O)[C@H](Cc1ccccc1)NC(=O)[C@H](C)NC(=O)[C@H](Cc1c[nH]c2ccccc12)NC(=O)[C@H](Cc1c[nH]c2ccccc12)NC(=O)[C@H](Cc1c[nH]c2ccccc12)NC(=O)[C@H](C)NC(=O)[C@H](Cc1ccccc1)NC(=O)[C@H](CCCN=C(N)N)NC(=O)[C@H](CCCN=C(N)N)NC(=O)[C@@H](N)C(C)C)C(=O)N[C@@H](CCCN=C(N)N)C(=O)N[C@@H](CCCN=C(N)N)C(N)=O` [VRRFAWWWAFLRR], the figures for the minimal inhibitory concentration (MIC) in assay [4], in assay [5] and in assay [3] were 2.7 µM (≈ 5 µg/mL), 5.4 µM (≈ 9.99 µg/mL) and 2 µM (≈ 3.7 µg/mL), respectively.
